± gives the expanded uncertainty stated by the source.
Conditions: Crystal; visual observation

Triple point temperature: 537 ± 10 K
SMILES: O=c1cc(-c2ccccc2)oc2cc(O)c(O)c(O)c12 [baicalein]
